Results taken from patent US5849777A, “Cell differentiation induction with mevalonate and mevalonolactone derivatives” (University of New Mexico, priority 1995, dated 1998).

System: Canine glioma
Assay: in vivo tumor inhibition: canine model
Design: species or system dog
Method: Canine glioma was implanted surgically into the brains of four outbred dogs (2×10^6 cells). This procedure normally causes death by tumor growth in 14-28 days.
[…] F) by I.P. injection in phosphate buffered saline.
Tumor progress was assessed at weekly intervals by NMR, employing GdDPTA as imaging agent. This method illuminates vascularization at the surface of the tumor, and provides images which correlate well with neuropathological observations.

| SMILES | tumor status, later studies (10 μg/kg I.P. (data not shown)) | small tumor appeared on Day (pre-treated, 10 μg/kg I.P. M, W, F after implantation (FIG. 8)) [days] | tumor visible at Day (treatment begun on Day 11 (FIG. 9)) [days] |
| --- | --- | --- | --- |
| CC(C)c1nc(-c2ccccc2)n(-c2ccc(F)cc2)c1/C=C/[C@H](O)C[C@H](O)CC(=O)O [TF-002] | free of tumor | 12 |  |
| CC(C)c1c(/C=C/C(O)CC(O)CC(=O)O)n(-c2ccc(F)cc2)c2ccccc12 (stereo not drawn) [TF-004] |  |  | 10 |
